{"source": "paper PMC7311426", "about": "“An amphipathic peptide with antibiotic activity against multidrug-resistant Gram-negative bacteria” (Nature Communications, 2020)", "key": {"E. coli ATCC 25922 [1]": {"tested_on": "E. coli ATCC 25922", "assay_type": "cell-based, Escherichia coli", "settings": "E. coli ATCC 25922, FDA control strain; BMD with 5% Survanta lung surfactant; mode, or median where no mode, n=4 to 6; where n=2 differs the higher value"}, "E. coli ATCC 25922 [2]": {"tested_on": "E. coli ATCC 25922", "assay": "microbe, parasite or virus in culture", "assay_type": "cell-based, Escherichia coli", "design": "MIC, Survanta (5%) replicates: unit not given beside the values", "settings": "for MIC, Survanta (5%) replicates: BMD with 5% Survanta lung surfactant", "how_it_was_run": "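Broth microdilution MIC in Mueller Hinton broth, 12-point 2-fold series from 128 or 64 down to 0.06 or 0.03 μg mL^−1, 5 × 10^5 CFU mL^−1 inoculum. Read visually after 18-20 h at 37 °C without shaking; n ≥ 6. Additional tests in CAMHB, and in MHB with 1% agarose.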"}, "K. pneumoniae": {"tested_on": "K. pneumoniae", "assay": "microbe, parasite or virus in culture", "assay_type": "cell-based, Klebsiella pneumoniae", "settings": "for MIC, Survanta (5%) replicates / MIC, Survanta (5%): BMD with 5% Survanta lung surfactant; for MIC, Serum (50%) replicates / MIC, Serum (50%): BMD with 50% human serum; for MIC: Klebsiella pneumoniae"}, "P. aeruginosa": {"tested_on": "P. aeruginosa", "assay": "microbe, parasite or virus in culture", "assay_type": "cell-based, Pseudomonas aeruginosa", "design": "MIC, Survanta (5%) replicates: unit not given beside the values", "settings": "for MIC, Survanta (5%) / MIC, Survanta (5%) replicates: BMD with 5% Survanta lung surfactant; for MIC, Survanta (5%): mode, or median where no mode, n=4 to 6, where n=2 differs the higher value; for MIC: Pseudomonas aeruginosa"}, "[3]": {"settings": "K. pneumoniae ATCC 13883, type strain, replicate 1"}, "[4]": {"settings": "K. pneumoniae ATCC 13883, type strain, replicate 2"}, "[5]": {"settings": "K. pneumoniae ATCC 700603, ESBL, OXA-2/SHV-18, mode, or median where no mode, n=4 to 6, where n=2 differs the higher value"}, "[6]": {"settings": "K. pneumoniae ATCC 700603, ESBL, OXA-2/SHV-18, replicate 1"}, "[7]": {"settings": "K. pneumoniae ATCC 700603, ESBL, OXA-2/SHV-18, replicate 2"}}, "note": "Read-outs that look alike come from different tables or passages of the source."}
{"smiles": "O=C(O)c1cn(C2CC2)c2cc(N3CCNCC3)c(F)cc2c1=O", "note": "[Ciprofloxacin, ciprofloxacin]", "values": [{"measurement": "MIC, Survanta (5%)", "setting": "E. coli ATCC 25922 [1]", "value": "≤0.03"}, {"measurement": "MIC, Survanta (5%) replicates", "setting": "E. coli ATCC 25922 [2]; E. coli ATCC 25922, FDA control strain, replicate 1", "value": "≤0.03"}, {"measurement": "MIC, Survanta (5%) replicates", "setting": "E. coli ATCC 25922 [2]; E. coli ATCC 25922, FDA control strain, replicate 2", "value": "≤0.03"}, {"measurement": "MIC, Survanta (5%) replicates", "setting": "E. coli ATCC 25922 [2]; E. coli ATCC 25922, FDA control strain, replicate 3", "value": "≤0.03"}, {"measurement": "MIC, Survanta (5%) replicates", "setting": "E. coli ATCC 25922 [2]; E. coli ATCC 25922, FDA control strain, replicate 4", "value": "≤0.03"}, {"measurement": "MIC, Serum (50%)", "setting": "E. coli ATCC 25922 [2]; E. coli ATCC 25922, FDA control strain, BMD with 50% human serum, mode, or median where no mode, n=4 to 6, where n=2 differs the higher value", "value": "≤0.03"}, {"measurement": "MIC, Serum (50%) replicates", "setting": "E. coli ATCC 25922 [2]; E. coli ATCC 25922, FDA control strain, BMD with 50% human serum, replicate 1", "value": "≤0.03"}, {"measurement": "MIC, Serum (50%) replicates", "setting": "E. coli ATCC 25922 [2]; E. coli ATCC 25922, FDA control strain, BMD with 50% human serum, replicate 2", "value": "≤0.03"}, {"measurement": "MIC, Serum (50%) replicates", "setting": "E. coli ATCC 25922 [2]; E. coli ATCC 25922, FDA control strain, BMD with 50% human serum, replicate 3", "value": "≤0.03"}, {"measurement": "MIC, Serum (50%) replicates", "setting": "E. coli ATCC 25922 [2]; E. coli ATCC 25922, FDA control strain, BMD with 50% human serum, replicate 4", "value": "≤0.03"}, {"measurement": "MIC", "setting": "E. coli ATCC 25922 [2]; Escherichia coli, ATCC25922, read-out: MIC, SURVANTA (5%), E. coli ATCC 25922, MHB + 5% (v/v) lung surfactant, n=2 to 6, mode or median", "value": "≤ 0.03", "unit": "µg/mL"}, {"measurement": "MIC, Survanta (5%) replicates", "setting": "K. pneumoniae; [3]", "value": 0.5}, {"measurement": "MIC, Survanta (5%) replicates", "setting": "K. pneumoniae; [4]", "value": 0.5}, {"measurement": "MIC, Survanta (5%) replicates", "setting": "K. pneumoniae; K. pneumoniae ATCC 13883, type strain, replicate 3", "value": 0.125}, {"measurement": "MIC, Survanta (5%) replicates", "setting": "K. pneumoniae; K. pneumoniae ATCC 13883, type strain, replicate 4", "value": 0.125}, {"measurement": "MIC, Serum (50%) replicates", "setting": "K. pneumoniae; [3]", "value": "≤0.03"}, {"measurement": "MIC, Serum (50%) replicates", "setting": "K. pneumoniae; [4]", "value": "≤0.03"}, {"measurement": "MIC, Serum (50%)", "setting": "K. pneumoniae; K. pneumoniae ATCC 13883, type strain, where n=2 differs the higher value is recorded", "value": "≤0.03"}, {"measurement": "MIC, Survanta (5%)", "setting": "K. pneumoniae; [5]", "value": 1}, {"measurement": "MIC, Survanta (5%) replicates", "setting": "K. pneumoniae; [6]", "value": 2}, {"measurement": "MIC, Survanta (5%) replicates", "setting": "K. pneumoniae; [7]", "value": 2}, {"measurement": "MIC, Survanta (5%) replicates", "setting": "K. pneumoniae; K. pneumoniae ATCC 700603, ESBL, OXA-2/SHV-18, replicate 3", "value": 0.5}, {"measurement": "MIC, Survanta (5%) replicates", "setting": "K. pneumoniae; K. pneumoniae ATCC 700603, ESBL, OXA-2/SHV-18, replicate 4", "value": 1}, {"measurement": "MIC, Serum (50%)", "setting": "K. pneumoniae; [5]", "value": 0.125}, {"measurement": "MIC, Serum (50%) replicates", "setting": "K. pneumoniae; [6]", "value": 0.125}, {"measurement": "MIC, Serum (50%) replicates", "setting": "K. pneumoniae; [7]", "value": 0.06}, {"measurement": "MIC, Survanta (5%)", "setting": "K. pneumoniae; K. pneumoniae BAA-2146, NDM-1, mode, or median where no mode, n=4 to 6, where n=2 differs the higher value", "value": ">64"}, {"measurement": "MIC, Survanta (5%) replicates", "setting": "K. pneumoniae; K. pneumoniae BAA-2146, NDM-1, replicate 1", "value": ">64"}, {"measurement": "MIC, Survanta (5%) replicates", "setting": "K. pneumoniae; K. pneumoniae BAA-2146, NDM-1, replicate 2", "value": ">64"}, {"measurement": "MIC, Survanta (5%) replicates", "setting": "K. pneumoniae; K. pneumoniae BAA-2146, NDM-1, replicate 3", "value": ">64"}, {"measurement": "MIC, Survanta (5%) replicates", "setting": "K. pneumoniae; K. pneumoniae BAA-2146, NDM-1, replicate 4", "value": ">64"}, {"measurement": "MIC", "setting": "K. pneumoniae; ATCC13883, read-out: MIC, Serum (50%)", "value": "≤ 0.03", "unit": "µg/mL"}, {"measurement": "MIC", "setting": "K. pneumoniae; ATCC700603, read-out: MIC, Serum (50%)", "value": 0.125, "unit": "µg/mL"}, {"measurement": "MIC", "setting": "K. pneumoniae; ATCC700603, read-out: MIC, Survanta (5%)", "value": 1, "unit": "µg/mL"}, {"measurement": "MIC", "setting": "K. pneumoniae; BAA2146, read-out: MIC, Survanta (5%)", "value": "> 64", "unit": "µg/mL"}, {"measurement": "MIC, Survanta (5%)", "setting": "P. aeruginosa; P. aeruginosa ATCC 27853, control strain", "value": 1}, {"measurement": "MIC, Survanta (5%) replicates", "setting": "P. aeruginosa; P. aeruginosa ATCC 27853, control strain, replicate 1", "value": 1}, {"measurement": "MIC, Survanta (5%) replicates", "setting": "P. aeruginosa; P. aeruginosa ATCC 27853, control strain, replicate 2", "value": 1}, {"measurement": "MIC, Survanta (5%) replicates", "setting": "P. aeruginosa; P. aeruginosa ATCC 27853, control strain, replicate 3", "value": 0.5}, {"measurement": "MIC, Survanta (5%) replicates", "setting": "P. aeruginosa; P. aeruginosa ATCC 27853, control strain, replicate 4", "value": 0.5}, {"measurement": "MIC, Serum (50%) replicates", "setting": "P. aeruginosa; P. aeruginosa ATCC 27853, control strain, BMD with 50% human serum, replicate 1", "value": 0.125}, {"measurement": "MIC, Survanta (5%)", "setting": "P. aeruginosa; P. aeruginosa FADDI-070, MDR, PmxR", "value": 0.5}, {"measurement": "MIC, Survanta (5%) replicates", "setting": "P. aeruginosa; P. aeruginosa FADDI-070, MDR, PmxR, replicate 1", "value": 1}, {"measurement": "MIC, Survanta (5%) replicates", "setting": "P. aeruginosa; P. aeruginosa FADDI-070, MDR, PmxR, replicate 2", "value": 1}, {"measurement": "MIC, Survanta (5%) replicates", "setting": "P. aeruginosa; P. aeruginosa FADDI-070, MDR, PmxR, replicate 3", "value": 0.125}, {"measurement": "MIC, Survanta (5%) replicates", "setting": "P. aeruginosa; P. aeruginosa FADDI-070, MDR, PmxR, replicate 4", "value": 0.5}, {"measurement": "MIC, Serum (50%) replicates", "setting": "P. aeruginosa; P. aeruginosa FADDI-070, MDR, PmxR, BMD with 50% human serum, replicate 1", "value": 0.06}, {"measurement": "MIC, Serum (50%) replicates", "setting": "P. aeruginosa; P. aeruginosa FADDI-070, MDR, PmxR, BMD with 50% human serum, replicate 2", "value": 0.06}, {"measurement": "MIC, Serum (50%)", "setting": "P. aeruginosa; P. aeruginosa FADDI-070, MDR, PmxR, BMD with 50% human serum, where n=2 differs the higher value is recorded", "value": 0.06}, {"measurement": "MIC", "setting": "P. aeruginosa; ATCC27853, read-out: MIC, Survanta (5%), P. aeruginosa ATCC 27853 control strain, n=2 to 6, mode or median", "value": 1, "unit": "µg/mL"}, {"measurement": "MIC", "setting": "P. aeruginosa; read-out: MIC, Serum (50%)", "value": 0.06, "unit": "µg/mL"}, {"measurement": "MIC", "setting": "P. aeruginosa; read-out: MIC, Survanta (5%)", "value": 0.5, "unit": "µg/mL"}]}
